Test results: US20220033490A1 (priority 2018, published 2022)

Biological target: T1, α6*nAChR (Homo sapiens, UniProt Q15825)
T1 construct: endogenous in cells; host or cells: human inducible Tregs (from naïve CD4+ T cells of PBMCs) co-cultured with autologous CD8+ T cells
Type: cell-based

T1 sequence (Q15825 26-494): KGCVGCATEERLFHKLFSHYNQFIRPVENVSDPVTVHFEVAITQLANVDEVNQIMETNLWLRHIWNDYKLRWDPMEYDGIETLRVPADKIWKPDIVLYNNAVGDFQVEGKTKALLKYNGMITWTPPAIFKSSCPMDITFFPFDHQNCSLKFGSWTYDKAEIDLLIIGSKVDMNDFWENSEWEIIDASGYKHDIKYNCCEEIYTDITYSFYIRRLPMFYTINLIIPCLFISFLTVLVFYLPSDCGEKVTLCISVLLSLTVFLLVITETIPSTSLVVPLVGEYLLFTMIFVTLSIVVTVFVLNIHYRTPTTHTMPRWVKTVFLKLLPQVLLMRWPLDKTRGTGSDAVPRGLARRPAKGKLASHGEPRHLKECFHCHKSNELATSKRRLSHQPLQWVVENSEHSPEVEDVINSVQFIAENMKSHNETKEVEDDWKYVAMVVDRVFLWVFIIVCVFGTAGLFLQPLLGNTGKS

Compound | IFNγ+CD8+ T-cells in co-culture | IFNγ+CD8+ T cells in co-culture
CN1CCCC1c1cccnc1 (centres unmarked) [nicotine] | trend of decreasing IFNγ+CD8+ T-cells | –
alpha-conotoxin PIA [[…]-conotoxin PIA] | – | trend of increasing IFNγ+CD8+ T cells
